Here are results for 19 compounds from patent US10519105B2, “KCNQ2-5 channel activator” (ONO PHARMACEUTICAL CO., LTD., priority 2016, dated 2019).

pEC50: −log10 of the molar value. ≈ marks a conversion by molar mass, not a printed value.

The target of series [1] is T1, Human KCNQ2/3 channel (Homo sapiens, UniProt O43525+O43526).
T1 construct: expressed in transfected cells; host or cells: CHO-DHFR- cells
Kind of series: Opening action with respect to KCNQ2/3 channel by depolarization stimulation (thallium influx, FLIPR). In kind it is cell-based. The conditions noted are these: concentration giving 50% of the maximum reaction of retigabine (10 μM); human KCNQ2/3 expressing CHO-DHFR- cells; read-out: KCNQ2/3 ECrtg50. The protocol:
Human KCNQ2/3 expression cells (CHO-DHFR− cells) were seeded in each well of a 384-well plate (collagen-coated, black, clear bottom) at 0.5×10^4 cells/50 μL per well and cultured using a MEM ALPHA medium (containing 10 vol % inactivated (56° C., 30 min) fetal bovine serum, 100 IU/mL penicillin, 100 μg/mL streptomycin, and 2 mM L-glutamine) at 37° C. in 5% CO2 for 18 to 24 hours. After the medium in the plate was removed, incubation (room temperature, 60 minutes, shading) was performed in a loading buffer (prepared by the method described in the manual of FluxOR Thallium Detection Kit (Invitrogen, F10016, F10017)). A KCNQ2/3 channel opening action (thallium influx into cells) by depolarization stimulation (5 mM potassium and 0.5 mM thallium) was measured by FLIPR TETRA (Molecular Devices). The compound of the present invention was treated 5 minutes before the depolarization stimulation, and the reaction induced by the depolarization stimulation was measured over time for 180 seconds. The channel opening action of the compound of the present invention was evaluated based on the change amount of the fluorescence intensity from the time before the depolarization stimulation to the time after the elapse of 180 seconds, and the concentration (ECrtg50) satisfying 50% of the fluorescence intensity change of a maximum reaction (in the treatment at 10 μM) of retigabine under the conditions of this experiment was calculated.

Series [2] in a line: Solubility test (DMSO precipitation method, Japanese Pharmacopoeia dissolution test second solution). The class given is physicochemical. Conditions: aqueous buffer, kinetic from dmso stock, JP dissolution test second solution pH 6.8, room temperature, quantification range 5 to 100 μM. The protocol:
A calibration curve solution was prepared at 0.1, 0.4, and 2 μM by diluting a test substance (a 10 mM DMSO solution) with acetonitrile and adding acetonitrile containing an internal standard substance (candesartan).
A sample solution was prepared as follows. 5 μL of the compound of the present invention (a 10 mM DMSO solution) was added to 495 μL of the Japanese Pharmacopoeia dissolution test second solution (pH: 6.8), followed by stirring at room temperature for 5 hours. Then, the solution was transferred to a solubility filter plate and subjected to suction filtration. The filtrate (20 μL) was diluted with acetonitrile, followed by adding acetonitrile containing an internal standard substance (candesartan).
Each of the calibration curve and sample solutions (5 μL) was injected into LC-MS/MS (Discovery Max, manufactured by Thermo Scientific, Inc.) and subjected to quantification (quantification range: 5 to 100 μM). The solubility in the case where the value equal to or less than the quantification range was obtained was defined as <5 μM, and the solubility in the case where the value equal to or more than the quantification range was obtained was defined as […].

Series [3] is described as follows: Stability in human liver microsomes. The conditions noted are these: human liver microsomes 0.5 mg/mL, NADPH, 5 μM, 37° C., 15 minutes. In kind it is in vitro ADME. The protocol: A test compound (a 10 mM DMSO solution, 5 μL) was diluted with a 50% aqueous acetonitrile solution (195 μL), whereby a 0.25 mM solution was prepared.
To a reaction vessel preheated to 37° C., 0.5 mg/mL of human liver microsomes (XenoTech, LLC) and 245 JLL of a 0.1 M phosphate buffer solution (pH 7.4) containing NADPH co-factor (BD Biosciences) were added, followed by preincubation for 5 minutes, and thereafter, the above-prepared test compound solution (5 μL) was added thereto to start a reaction (final concentration: 5 μM). Immediately after the start, a 20 μL portion was collected and added to 180 μL of acetonitrile containing an internal standard substance (warfarin) to stop the reaction. A 20 μL portion of this solution was stirred with 180 μL of a 50% aqueous acetonitrile solution on a plate equipped with a deproteinization filter, followed by suction filtration, and the filtrate was used as a standard sample.
After the above-prepared reaction solution was incubated at 37° C. for 15 minutes, a 20 μL portion of the solution was added to 180 μL of cooled acetonitrile (containing warfarin serving as an internal standard substance) to stop the reaction. A 20 μL portion of this solution was stirred with 180 μL of a 50% aqueous acetonitrile solution on a plate equipped with a deproteinization filter, followed by suction filtration, and the filtrate was used as a reaction sample.
A residual ratio (%) was calculated as follows. 1 μL of the sample solution was injected into LC-MS/MS (Discovery Max, manufactured by Thermo Scientific, Inc.), and a value obtained by dividing the peak area ratio of the reaction sample (peak area of test compound/peak area of internal standard substance) by the peak area ratio of the standard sample was multiplied by 100.
On the technique in general: Liver microsomes are a subcellular fraction often used to study metabolism.

Usually solubility stands for the dissolved amount per volume that the medium holds. Read a high solubility as much dissolved substance. As for `O=C(NCC1CC1)Nc1c(Cl)cc2c(c1Cl)CCC2(O)C(F)(F)F` (stereo not drawn) [Example 12(13), 1-(cyclopropylmethyl)-3-[4,6-dichloro-1-hydroxy-1-(trifluoromethyl)-2,3-dihydro-1H-inden-5-yl]urea], the pEC50 in series [1] was 7.22. In series [2], this compound returned a solubility at 5 h of 78 µM (≈ 29.9 µg/mL). Further, the Residual ratio in series [3] is 100%.

On to `O=C(NCc1ccc(-c2ccc(Cl)cc2)o1)Nc1c(Cl)cc2c(c1Cl)CCC2(O)C(F)(F)F` (stereo not drawn) [Example 12(16), 1-{[5-(4-chlorophenyl)-2-furyl]methyl}-3-[4,6-dichloro-1-hydroxy-1-(trifluoromethyl)-2,3-dihydro-1H-inden-5-yl]urea], for which the pEC50 in series [1] is 8.00.

For the compound `O=C(NCc1cccc(N2CCCCC2)n1)Nc1c(Cl)cc2c(c1Cl)CCC2(O)C(F)(F)F` (stereo not drawn) [Example 12(9), 1-[4,6-dichloro-1-hydroxy-1-(trifluoromethyl)-2,3-dihydro-1H-inden-5-yl]-3-{[6-(1-piperidinyl)-2 pyridinyl]methyl}urea], the pEC50 in series [1] is 7.30.

On to `CC1(CNC(=O)Nc2c(Cl)cc3c(c2Cl)CCC3(O)C(F)(F)F)CCOCC1` (stereo not drawn) [Example 12(2), 1-[4,6-dichloro-1-hydroxy-1-(trifluoromethyl)-2,3-dihydro-1H-inden-5-yl]-3-[(4-methyltetrahydro-2H-pyran-4-yl)methyl]urea], for which the pEC50 in series [1] is 6.70. The compound also gave a solubility at 5 h in series [2] of 85 µM (≈ 37.5 µg/mL).

Consider `C[C@@H](NC(=O)Nc1c(Cl)cc2c(c1Cl)CC[C@]2(O)C(F)(F)F)c1ccc(F)cc1` [Example 21, 1-[(1R)-4,6-dichloro-1-hydroxy-1-(trifluoromethyl)-2,3-dihydro-1H-inden-5-yl]-3-[(1R)-1-(4-fluorophenyl)ethyl]urea], for which the pEC50 in series [1] was 8.30. The concentration in solution in series [2] (solubility at 5 h) was 72 µM (≈ 32.5 µg/mL). In series [3], the Residual ratio amounted to 95%.

Consider `CC1(O)CCc2c1cc(Cl)c(NC(=O)NCCOC1CCCCC1)c2Cl` (stereo not drawn) [Example 3(24), 1-[2-(cyclohexyloxy)ethyl]-3-(4,6-dichloro-1-hydroxy-1-methyl-2,3-dihydro-1H-inden-5-yl)urea], for which the pEC50 in series [1] was 6.40.

`Cc1cc(CNC(=O)Nc2c(Cl)cc3c(c2Cl)CCC3(O)C(F)(F)F)no1` (stereo not drawn) [Example 12(8), 1-[4,6-dichloro-1-hydroxy-1-(trifluoromethyl)-2,3-dihydro-1H-inden-5-yl]-3-[(5-methyl-1,2-oxazole-3-yl)methyl]urea]: the pEC50 in series [1] was 6.70. In series [2], this compound came in with a solubility at 5 h of 94 µM (≈ 39.9 µg/mL). Further, in series [3], the Residual ratio is recorded as 100%.

Take `CC1(O)CCc2c1cc(Cl)c(NC(=O)NCC1CC3CCC1C3)c2Cl` (stereo not drawn) [Example 3(25), 1-(bicyclo[2.2.1]hept-2-ylmethyl)-3-(4,6-dichloro-1-hydroxy-1-methyl-2,3-dihydro-1H-inden-5-yl)urea]: the pEC50 in series [1] is 8.00.

Turning to `CC1(O)CCc2c1cc(Cl)c(NC(=O)NCc1cccc(C(F)(F)F)c1)c2Cl` (stereo not drawn) [Example 3(9), 1-(4,6-dichloro-1-hydroxy-1-methyl-2,3-dihydro-1H-inden-5-yl)-3-[3-(trifluoromethyl)benzyl]urea], the pEC50 in series [1] is 7.40.

Take `O=C(NCc1cc2ccccc2[nH]1)Nc1c(Cl)cc2c(c1Cl)CCC2(O)C(F)(F)F` (stereo not drawn) [Example 12(21), 1-[4,6-dichloro-1-hydroxy-1-(trifluoromethyl)-2,3-dihydro-1H-inden-5-yl]-3-(1H-indol-2-ylmethyl)urea]: the pEC50 in series [1] is 7.70.

For the compound `CC1(O)CCc2c1cc(Cl)c(NC(=O)NCCOc1ccc(F)cc1)c2Cl` (stereo not drawn) [Example 3(23), 1-(4,6-dichloro-1-hydroxy-1-methyl-2,3-dihydro-1H-inden-5-yl)-3-[2-(4-fluorophenoxy)ethyl]urea], the pEC50 in series [1] is 6.22. The compound also returned a solubility at 5 h in series [2] of 83 µM (≈ 34.3 µg/mL).

Consider `CC1(O)CCc2c1cc(Cl)c(NC(=O)NCc1ccc(OC(F)(F)F)cc1F)c2Cl` (stereo not drawn) [Example 3(16), 1-(4,6-dichloro-1-hydroxy-1-methyl-2,3-dihydro-1H-inden-5-yl)-3-[2-fluoro-4-(trifluoromethoxy)benzyl]urea], for which the pEC50 in series [1] was 7.52.

On to `CC1(O)CCc2c1cc(Cl)c(NC(=O)NCCc1ccc(F)cc1)c2Cl` (stereo not drawn) [Example 3(7), 1-(4,6-dichloro-1-hydroxy-1-methyl-2,3-dihydro-1H-inden-5-yl)-3-[2-(4-fluorophenyl)ethyl]urea], for which the pEC50 in series [1] is 6.30. This compound displayed a solubility at 5 h in series [2] of 86 µM (≈ 34.2 µg/mL).

On to `CC1(CNC(=O)Nc2c(Cl)cc3c(c2Cl)CCC3(O)C(F)(F)F)CC1` (stereo not drawn) [Example 12(17), 1-[4,6-dichloro-1-hydroxy-1-(trifluoromethyl)-2,3-dihydro-1H-inden-5-yl]-3-[(1-methylcyclopropyl)methyl]urea], for which the pEC50 in series [1] is 7.70.

As for `C[C@@H](NC(=O)Nc1c(Cl)cc2c(c1Cl)CC[C@@]2(O)C(F)(F)F)c1ccc(F)cc1` [Example 22, 1-[(1S)-4,6-dichloro-1-hydroxy-1-(trifluoromethyl)-2,3-dihydro-1H-inden-5-yl]-3-[(1R)-1-(4-fluorophenyl)ethyl]urea], the pEC50 in series [1] was 9.00.

On to `CC1(C)CC(C)(O)c2cc(Cl)c(NC(=O)NCc3ccc(C(F)(F)F)cn3)c(Cl)c21` (stereo not drawn) [Example 35, 1-(4,6-dichloro-1-hydroxy-1,3,3-trimethyl-2,3-dihydro-1H-inden-5-yl)-3-{[5-(trifluoromethyl)-2 pyridinyl]methyl}urea], for which the pEC50 in series [1] was 6.52. Further, in series [2], the solubility at 5 h amounted to 80 µM (≈ 37 µg/mL). Further, the Residual ratio in series [3] was determined as 81%.

With `CC1(O)CCc2c1cc(Cl)c(NC(=O)NC(C)(C)c1ccc(F)cc1)c2Cl` (stereo not drawn) [Example 3(10), 1-(4,6-dichloro-1-hydroxy-1-methyl-2,3-dihydro-1H-inden-5-yl)-3-[2-(4-fluorophenyl)-2-propanyl]urea], in series [1], the pEC50 is 6.52.

On to `CC1(O)CCc2c1cc(Cl)c(NC(=O)NCCC1CCCC1)c2Cl` (stereo not drawn) [Example 3(13), 1-(2-cyclopentylethyl)-3-(4,6-dichloro-1-hydroxy-1-methyl-2,3-dihydro-1H-inden-5-yl)urea], for which, in series [1], the pEC50 is 7.70. The same compound had a solubility at 5 h in series [2] of 92 µM (≈ 34.2 µg/mL).

Turning to `CC1(O)CCc2c1cc(Cl)c(NC(=O)OCc1ccc(F)cc1)c2Cl` (stereo not drawn) [Example 3(19), 4-fluorobenzyl(4,6-dichloro-1-hydroxy-1-methyl-2,3-dihydro-1H-inden-5-yl)carbamate], the pEC50 in series [1] is 7.30. This compound also registered a solubility at 5 h in series [2] of 76 µM (≈ 29.2 µg/mL). Besides, the Residual ratio in series [3] is on record as 83%.
